Laboratory results as given in patent US12673084B2, “Compositions and methods for combinatorial drug discovery in nanoliter droplets” (The Broad Institute, Inc., priority 2017, dated 2026).
Starred links: 1 amine or outer side, 2 acyl side, 3 side chain; linkers in the order of their positions; H or OH if unused. Non-standard residues stand in square brackets, D forms with d. Residues, ends and D or L forms follow the SMILES beside them. Groups on a side chain read outwards from the residue. *: point of attachment. Ethylenediamine = C(CN[*:2])N[*:1]; Hyp = O=C(O)[C@@H]1C[C@@H](O)CN1; Phg = N[C@H](C(=O)O)c1ccccc1; CO = O=C([*:1])[*:2]; Bn = c1ccc(C*)cc1

Legend:
E. coli K-12 MG1655 = test: Antibiotic potentiation primary screen in nanoliter droplet microwell array (GFP growth, Bliss score); type: cell-based, Escherichia coli; conditions: for Primary screening prediction of synergy with tetracycline: compound 100 μM x tetracycline; for Primary screening call, pilot phase: pilot phase of screen; for Interaction between Tedizolid and Pasireotide (relative GFP): each 100 μM, same microwell array, FIG. 34
Protocol: To perform the antibiotic potentiation screen, each microwell chip received droplets containing a total of 64 input conditions, with 32 held constant across all chips, and 32 that vary on each chip (FIG. 3F). The first 32, held fixed, consisted of 30 antibiotic conditions (10 antibiotics×3 concentrations, no cells), and 2 media controls (no cells). The second 32 consisted of 1-2 positive controls (sulbactam 20 μM, + cells; or erythromycin 5 μM, + cells), 1-2 negative blank controls (+ cells), 2-4 media controls (+ cells), and 24-28 variable compounds (100 μM, + cells). All conditions were in cation-adjusted Mueller Hinton broth media, 2% DMSO (all concentrations reported are final concentrations).
This setup allowed the screen to be performed in a divide-and-conquer format. The repurposing compound library is composed of 4,160 compounds across 52 96-well plates (80 compounds per plate, with controls in column 1 and 12). Each 96-well plate was divided into 3 groups of 32, each run on a separate chip but pooled with the same set of antibiotics-carrying droplets.
E. coli K-12 MG1655 with plasmid-mediated constitutive expression of GFP was prepared as described above, and added to all conditions described as “+ cells” just prior to emulsification. After loading, imaging, and merging, microwell arrays were incubated at 37° C. (static), and then later imaged again to measure growth by GFP fluorescence.
To estimate synergy between compounds and antibiotics, the Bliss Independence metric was used.
The net growth inhibition for antibiotic A from microwells carrying an antibiotic A (no cells) droplet, and a media (+ cells) droplet were estimated. The net growth inhibition of a screening compound from microwells carrying compound B (+ cells) droplet, and a media (no cells) droplet were also estimated. All growth values were normalized to microwells containing a pair of media (+ cells) and media (no cells) droplets, and estimated synergy using the Bliss Independence metric. Since each antibiotic was present at 3 concentrations, a metric was summed for the compound across each of the 3 conditions to yield a final metric called “Bliss Score.” Compounds with net growth inhibition exceeding 80% were removed from analysis.
To estimate the uncertainty in the Bliss Score measurement, all microwells in the array were bootstrap resampled (100 iterations) to the number of counted for each pair of inputs and recomputed Bliss Scores to estimate a sampling distribution and standard error.

[1] = 12 weeks, cited from earlier work
[2] = 416 COPD patients; dry-powder inhaler; cited from earlier work
[3] = year-long trial; cited from earlier work
[4] = system: Native AMPA/kainate receptors, pyramidal neurons; conditions: cited from earlier work
[5] = system: Native AMPA/kainate receptors, interneurons; conditions: cited from earlier work
[6] = system: recombinant, homomeric GluR1 and GluR3 receptors; conditions: cited from earlier work
Rac = Rac (Homo sapiens, UniProt P63000); conditions: cited from earlier work
[7] = biological target: T1, receptors containing edited GluR2 subunits (Homo sapiens, UniProt P42262, Q607R); conditions: 100 microM compound; n=5 oocytes; Vh −80 mV; cited from earlier work
T1 construct: host or cells: Xenopus oocytes expressing recombinant receptors

somatostatin receptor 5 = somatostatin receptor 5 (Homo sapiens, UniProt P35346); conditions: cited from earlier work
[8] = cited from earlier work
P. aeruginosa = test: Checkerboard drug interaction assay ampicillin x sulbactam, 96-well broth culture vs microdroplet platform; type: cell-based, Pseudomonas aeruginosa
Source text: FIG. 27 is a graph of a comparison checkerboard assay between 96-well plates and microwell array platform. Comparison of checkerboard drug interaction assay in P. aeruginosa for ampicillin and a beta-lactamase inhibitor, sulbactam.

somatostatin receptor 5, sequence (P35346 whole entry): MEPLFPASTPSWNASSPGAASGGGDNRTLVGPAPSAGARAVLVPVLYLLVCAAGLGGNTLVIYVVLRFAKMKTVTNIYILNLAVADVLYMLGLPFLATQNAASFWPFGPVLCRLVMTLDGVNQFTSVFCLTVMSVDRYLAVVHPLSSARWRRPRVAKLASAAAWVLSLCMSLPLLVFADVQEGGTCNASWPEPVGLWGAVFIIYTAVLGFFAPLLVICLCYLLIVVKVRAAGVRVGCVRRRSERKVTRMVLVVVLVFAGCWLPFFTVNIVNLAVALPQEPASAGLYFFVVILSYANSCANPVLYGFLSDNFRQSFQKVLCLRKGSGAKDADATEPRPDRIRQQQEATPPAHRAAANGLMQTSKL
T1 sequence (P42262 25-883 Q607R): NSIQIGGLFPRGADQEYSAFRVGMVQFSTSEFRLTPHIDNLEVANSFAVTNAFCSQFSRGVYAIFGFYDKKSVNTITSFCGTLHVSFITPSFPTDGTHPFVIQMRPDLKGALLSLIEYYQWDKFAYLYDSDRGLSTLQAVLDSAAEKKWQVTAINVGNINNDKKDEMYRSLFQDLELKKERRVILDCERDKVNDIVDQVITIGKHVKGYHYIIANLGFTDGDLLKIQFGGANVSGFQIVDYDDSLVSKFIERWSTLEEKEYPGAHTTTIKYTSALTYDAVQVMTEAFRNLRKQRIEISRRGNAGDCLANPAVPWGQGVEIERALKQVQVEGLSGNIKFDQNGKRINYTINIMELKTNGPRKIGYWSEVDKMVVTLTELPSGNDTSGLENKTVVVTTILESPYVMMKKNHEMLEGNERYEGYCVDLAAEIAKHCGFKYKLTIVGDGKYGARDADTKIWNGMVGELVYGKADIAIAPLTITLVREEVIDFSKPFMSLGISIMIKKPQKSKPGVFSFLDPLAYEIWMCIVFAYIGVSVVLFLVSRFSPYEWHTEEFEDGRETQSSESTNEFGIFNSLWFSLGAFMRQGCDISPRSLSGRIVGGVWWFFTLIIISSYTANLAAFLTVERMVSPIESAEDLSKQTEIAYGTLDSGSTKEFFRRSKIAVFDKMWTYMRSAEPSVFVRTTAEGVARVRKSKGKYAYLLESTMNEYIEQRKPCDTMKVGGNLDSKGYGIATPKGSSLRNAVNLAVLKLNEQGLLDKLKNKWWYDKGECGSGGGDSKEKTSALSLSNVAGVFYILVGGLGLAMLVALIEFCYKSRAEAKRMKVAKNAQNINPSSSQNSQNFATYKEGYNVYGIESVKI

## CCc1cc2c(cc1CC)CC(NC[C@H](O)c1ccc(O)c3[nH]c(=O)ccc13)C2 [Indacaterol]
E. coli K-12 MG1655; compound 100 μM x erythromycin, E. coli
  Primary screening call with erythromycin: screening hit
[1]
  effect on FEV1 compared with tiotropium: no statistical difference
[1]; vs tiotropium
  St. George's Respiratory Questionnaire (SGRQ) total score: greater improvements
  transition dyspnoea index (TDI) total score: greater improvements
[2]
  FEV1 (both trough and AUC) compared to placebo: statistically improved
[3]
  improving FEV1 compared with twice-daily formoterol: significantly more effective

## Br.Br.NCCCCCNCC12CC3CC(CC(C3)C1)C2 [IEM 1754, 1-ammonio-5-(1-adamantane-methylammoniopentanedibromide)]
[4]
  potency relative to IEM-1460: equipotent
[5]
  times less potent than IEM-1460: approximately 3 times
E. coli K-12 MG1655; E. coli
  Primary screening prediction of synergy with tetracycline: predicted neutral
  Primary screening call, pilot phase: hit
[6]; homomeric GluR1 and GluR3
  times less potent than IEM-1460: 3.8 times

## CCn1c2ccccc2c2cc(Nc3ccnc(NCCCN4CCOCC4)n3)ccc21 (racemic) [EHop-016]
Rac
  more efficient inhibitor of Rac activity than NSC23766: 100 fold

## C[N+](C)(C)CCCCCNCC12CC3CC(CC(C3)C1)C2 [IEM-1460, 1-trimethylammonio-5-(1-adamantane-methyl-ammoniopentanedibromide)]
[4]; Vh=−80 mV
  IC50: 1620 µM
[5]; Vh=−80 mV
  IC50: 1.6 µM
[7]
  inhibition of responses to 100 microM kainate: 7.8+/−2.4%
[6]; holding potential (Vh) of −80 mV, open channel block
  IC50: 1.6 µM

## NCCCC[C@@H]1NC(=O)[C@@H](Cc2c[nH]c3ccccc23)NC(=O)[C@H](c2ccccc2)NC(=O)[C@@H]2C[C@@H](OC(=O)NCCN)CN2C(=O)[C@H](Cc2ccccc2)NC(=O)[C@H](Cc2ccc(OCc3ccccc3)cc2)NC1=O [Pasireotide, cyclo[{4-(NH2-C2H4-NH—CO—O-)Pro}-Phg-DTrp-Lys-Tyr(4-Bzl)-Phe]] (cyclo([Hyp]([CO-Ethylenediamine])[Phg][dW]KY(Bn)F))
E. coli K-12 MG1655
  Interaction between Tedizolid and Pasireotide (relative GFP): synergistic interaction
Somatostatin receptor 5
  increased affinity to somatostatin receptor 5 compared to other somatostatin analogs: 40 fold

## C[C@@H](O)[C@@H]1NC(=O)[C@H](CCCCN)NC(=O)[C@@H](Cc2c[nH]c3ccccc23)NC(=O)[C@H](Cc2ccccc2)NC(=O)[C@@H](NC(=O)[C@H](N)Cc2ccccc2)CSSC[C@@H](C(=O)N[C@H](CO)[C@@H](C)O)NC1=O [Octreotide]
[8]
  half-life: 1.5 h

## CC[C@H]1OC(=O)[C@H](C)[C@@H](O[C@H]2C[C@@](C)(OC)[C@@H](O)[C@H](C)O2)[C@H](C)[C@@H](O[C@@H]2O[C@H](C)C[C@H](N(C)C)[C@H]2O)[C@](C)(O)C[C@@H](C)C(=O)[C@H](C)[C@@H](O)[C@]1(C)O [erythromycin]
E. coli K-12 MG1655; positive control, expected value, erythromycin 5 μM x tetracycline, E. coli
  Bliss score with tetracycline: ~ 0.5

## Cn1nnc(-c2ccc(-c3ccc(N4C[C@H](CO)OC4=O)cc3F)cn2)n1 [Tedizolid]
E. coli K-12 MG1655
  Interaction between Tedizolid and Pasireotide (relative GFP): synergistic interaction

## O=C(CNC(=O)c1ccc(Cl)cc1)NO [Benurestat, 2-(para-chlorobenzamide)-acetohydroxamic acid]
E. coli K-12 MG1655; compound 100 μM x vancomycin, E. coli
  Primary screening call with vancomycin: screening hit
E. coli K-12 MG1655; E. coli
  Primary screening call, pilot phase: hit

## CCN(CC)CCCC(C)Nc1nc(C)cc(Nc2ccc3nc(C)cc(N)c3c2)n1.Cl.Cl.Cl (racemic) [NSC23766]
E. coli K-12 MG1655; compound 100 μM x novobiocin, E. coli
  Primary screening prediction of synergy with novobiocin: synergy predicted
E. coli K-12 MG1655; E. coli
  Primary screening prediction of synergy with tetracycline: no synergy predicted

## CC1(C)[C@H](C(=O)O)N2C(=O)C[C@H]2S1(=O)=O [sulbactam]
P. aeruginosa; 96-well broth culture
  FIC with ampicillin: <= 0.5
P. aeruginosa; microdroplet platform
  FIC with ampicillin: <= 0.3125
E. coli K-12 MG1655; positive control, expected value, sulbactam 20 μM x ampicillin, E. coli
  Bliss score with ampicillin: ~ 1
